Reference: patent US20240124418A1 (BioTheryX, Inc., priority 2020, published 2024)

Tested on: TNF-α
Assay: Cell-based TNF-α inhibition assay (LPS-induced PBMCs, Meso Scale)
Details: PBMC, PBMCs pretreated 1 h, LPS 100 ng/mL 18-24 h, percentage of stimulated DMSO control; for inhibition at 0.1 µM: compound concentration 0.1 μM; for inhibition at 1 µM: compound concentration 1 μM
Procedure: Example B1. Cell-Based TNF-α Inhibition Assay
Frozen primary blood mononuclear cells (PBMCs) were quick thawed, washed once with RPMI 1640 media supplemented with 10% fetal bovine serum, 1% penicillin, and 1% streptomycin, and plated in a 96 well plate at 200,000 cells per well. The cells were pretreated with DMSO only as a control or a compound for 1 h, and then induced with LPS (lipopolysaccharide) (100 ng/mL) for 18-24 h. The supernatant was analyzed for TNF-α using the Meso Scale assay. Compound activity was determined as a percentage of the stimulated DMSO control. The results are summarized in Table 1, where A represents a percent inhibition value ≥60%; B represents a percent inhibition value <60% and ≥40%; C represents a percent inhibition value <40% and ≥20%; and D represents a single percent inhibition value <20%.

SMILES	inhibition at 0.1 µM	inhibition at 1 µM
CCOc1cc([C@@H](CS(C)(=O)=O)N2C(=O)c3cccc(NC(=O)CCCc4cn(CCNCc5ccc(OCc6scc7c6CN(C6CCC(=O)NC6=O)C7=O)cc5)nn4)c3C2=O)ccc1OC (stereo partly drawn) [Compound A48, 4-[1-(2-{[(4-{[5-(2,6-Dioxopiperidin-3-yl)-4-oxo-4H,5H,6H-thieno[3,4-c]pyrrol-1-yl]methoxy}phenyl)methyl]amino}ethyl)-1H-1,2,3-triazol-4-yl]-N-{2-[(1S)-1-(3-ethoxy-4-methoxyphenyl)-2-methanesulfonylethyl]-1,3-dioxo-2,3-dihydro-1H-isoindol-4-yl}butanamide]	40 to 60%	≥ 60%
CCOc1cc([C@@H](CS(C)(=O)=O)N2C(=O)c3cccc(CCCCCCCCCCNCc4ccc(OCc5scc6c5CN(C5CCC(=O)NC5=O)C6=O)cc4)c3C2=O)ccc1OC (stereo partly drawn) [Compound A49, 4-(10-{[(4-{[5-(2,6-Dioxopiperidin-3-yl)-4-oxo-4H,5H,6H-thieno[3,4-c]pyrrol-1-yl]methoxy}phenyl)methyl]amino}decyl)-2-[(1S)-1-(3-ethoxy-4-methoxyphenyl)-2-methanesulfonylethyl]-2,3-dihydro-1H-isoindole-1,3-dione]	≥ 60%	≥ 60%
CCOc1cc([C@@H](CS(C)(=O)=O)N2C(=O)c3cccc(OCCCCCCCCCNCc4ccc(OCc5scc6c5CN(C5CCC(=O)NC5=O)C6=O)cc4)c3C2=O)ccc1OC (stereo partly drawn) [Compound A50, 4-[(9-{[(4-{[5-(2,6-Dioxopiperidin-3-yl)-4-oxo-4H,5H,6H-thieno[3,4-c]pyrrol-1-yl]methoxy}phenyl)methyl]amino}nonyl)oxy]-2-[(1S)-1-(3-ethoxy-4-methoxyphenyl)-2-methane-sulfonylethyl]-2,3-dihydro-1H-isoindole-1,3-dione]	≥ 60%	≥ 60%
CCOc1cc([C@@H](CS(C)(=O)=O)N2C(=O)c3cccc(NCCc4ccc(CCCCNCc5ccc(OCc6scc7c6CN(C6CCC(=O)NC6=O)C7=O)cc5)cc4)c3C2=O)ccc1OC (stereo partly drawn) [Compound A51, 4-({2-[4-(4-{[(4-{[5-(2,6-Dioxopiperidin-3-yl)-4-oxo-4H,5H,6H-thieno[3,4-c]-pyrrol-1-yl]methoxy}phenyl)methyl]amino}butyl)phenyl]ethyl}amino)-2-[(1S)-1-(3-ethoxy-4-methoxyphenyl)-2-methanesulfonylethyl]-2,3-dihydro-1H-isoindole-1,3-dione]	≥ 60%	≥ 60%
CCOc1cc([C@@H](CS(C)(=O)=O)N2C(=O)c3cc(CCCCCCCCCCCCC(=O)N[C@H](C(=O)N4C[C@H](O)C[C@H]4C(=O)NCc4ccc(-c5scnc5C)cc4)C(C)(C)C)cc(NC(C)=O)c3C2=O)ccc1OC [Compound A61, (2S,4R)-1-[(2S)-2-(13-{7-Acetamido-2-[(1S)-1-(3-ethoxy-4-methoxyphenyl)-2-methanesulfonylethyl]-1,3-dioxo-2,3-dihydro-1H-isoindol-5-yl}tridecanamido)-3,3-dimethylbutanoyl]-4-hydroxy-N-{[4-(4-methyl-1,3-thiazol-5-yl)phenyl]methyl}pyrrolidine-2-carboxamide]	≥ 60%	≥ 60%
CCOc1cc([C@@H](CS(C)(=O)=O)N2C(=O)c3cccc(CCCCCCCCCCC(=O)N[C@H](C(=O)N4C[C@H](O)C[C@H]4C(=O)NCc4ccc(-c5scnc5C)cc4)C(C)(C)C)c3C2=O)ccc1OC [Compound A62, (2S,4R)-1-[(2S)-2-(11-{2-[(1S)-1-(3-Ethoxy-4-methoxyphenyl)-2-methanesulfonylethyl]-1,3-dioxo-2,3-dihydro-1H-isoindol-4-yl}undecanamido)-3,3-dimethylbutanoyl]-4-hydroxy-N-{[4-(4-methyl-1,3-thiazol-5-yl)phenyl]methyl}pyrrolidine-2-carboxamide]	≥ 60%	≥ 60%
